Results on three molecules are retold here after patent publication US20050282208A1, “Cellular phenotype” (Cytokinetics, Inc., priority 2004, published 2005).

For assay [1], the system named is DU145 cells. The assay can be described thus: Cell line specificity: mitotic index, number of objects and rice phenotype in DU145 cells. It is filed as cell-based. As for the experimental part:
(§1) But it is apparently immune to all anti-mitotic agents.
(§2) As shown, the discrepancy exists over a wide range of concentrations. The two effects depicted in FIG. 7A are number of objects (a measure of the compound's cell killing strength) and mitotic index (fraction of the cells in a population that are in the mitotic phase).
FIG. 7B compares phenotypes of DU145 cells that were treated with 4-(3-Bromo-4-hydroxy-5-methoxy-phenyl)-6-methyl-2-oxo-1,2,3,4-tetrahydro-pyrimidine-5-carboxylic acid 1,2,2-trimethyl-propyl ester (top panel) to phenotypes of DU145 cells that were treated with a different compound (bottom panel). […] Note that the other compound produces a phenotype bearing some resemblance to the rice phenotype in SKOV3 cells. Specifically, it produces mitotic spindles that are somewhat elongated. […] This was not observed with the other compound.

In assay [2] the test system is A549 cells. The assay can be described thus: Cell line specificity: mitotic index, number of objects and rice phenotype in A549 cells. The format is cell-based, human. The settings on record: wide range of concentrations, FIG. 7A.
From the text: as §1, §2

Assay [3] has as its system SKOV3 cells. The assay can be described thus: Image analysis of treated SKOV3 cells: mitotic index and interphase phenotype distance from control. The format is cell-based.
The test system of assay [4] is SKOV3 cells. Described as above. The format is cell-based. The conditions noted are these: for Impact on mitotic index / Impact on interphase features (combined distance from normal interphase phenotype): FIG. 5A, multiple concentrations; for Impact on mitotic index: 40 uM maximum; for Impact on interphase features (combined distance from normal interphase phenotype): 40 uM maximum (Taxol 0.8 uM maximum). An excerpt: In one specific example, a particular group of cellular features for characterizing the interphase phenotype of a cell could include, for all cells that are not mitotic: • the average size of cell nuclei; • the average elliptical axis ratio for nuclei; • the average kurtosis intensity of cells; • the average pixel intensity for Golgi apparatus in cells; • the average cell area; • the elliptical axis ratio for cells; • the form factor (area divided by perimeter) for cells; • the kurtosis of the intensity of tubulin; • the second moment of a cell; • the average total intensity of tubulin for each cell; • the proportion of branched (i.e. having projections) cells.
In one embodiment, after each cellular feature has been characterized, and similarly for the control group cellular features, a distance in multivariate space may be calculated. This can be the distance from a normal interphase phenotype as presented in the horizontal axis of FIG. 5A (described below). For the purposes of simplicity of discussion, if it is assumed that there are only three cellular features (a, b, c) comprising the interphase phenotype signature, and where the subscript ‘t’ refers to a feature of a treated cell and the subscript ‘c’ refers to a feature of a control cell, then the distance (L1) in multivariate space between the interphase signature of the treated cells and interphase signature of the control cells can be calculated as L1=|at−ac|+|bt−bc|+|ct−cc|, which provides the interphase metric.
FIG. 5A presents data showing that certain compounds producing the rice phenotype have very little effect on phenotypic features of interphase cells. In FIG. 5A, the vertical axis presents mitotic index, which is a measure of a compound's ability to cause mitotic arrest (thereby its ability to have a profound effect on the phenotype of mitotic cells), and the horizontal axis presents a “combined distance” from a normal interphase phenotype. The combined distance takes into account various features that characterize interphase phenotype, including those described above (i.e., the average size of cell nuclei, the average elliptical axis ratio for nuclei, the average kurtosis intensity of cells, etc.) Greater values on the horizontal axis indicate greater deviations from a control phenotype for interphase cells.
FIG. 5B is a profile graph showing that the interphase cells treated with rice compounds track interphase control cells for various interphase phenotypic features. These features include, as shown on the horizontal axis, the relative number of objects (putative cells), the average area occupied by DNA in the objects (presumably nuclei), the average axes ratio of the DNA regions in the objects, the average kurtosis of the Golgi regions, the mean intensity of the Golgi regions, average area encompassed by tubulin in the objects, the average axes ratio of tubulin in the objects, the average kurtosis of the tubulin regions, the average form factor of the tubulin regions, the average moment of the tubulin regions, the average total intensity of tubulin in each object, and the branching properties of the tubulin in the objects. Note that the cells used to generate this graph were treated with markers for Golgi (LC for labeled LC Lectin), DNA (HO for Hoechst stain), and tubulin (DM for labeled DM1-α). As shown, the rice features closely track those of the DMSO treated cells and diverge strongly from the interphase cells of Taxol treated cells.
The data of FIG. 5B were obtained by treating SKOV3 cells with many different compounds and then capturing the interphase characteristics shown in the horizontal axis using image analysis techniques. The concentration of each compound was chosen by determining what concentration of a compound produced a mitotic index between 14 and 17% after cells were treated at multiple concentrations and then imaged to capture Golgi, tubulin, and DNA data for the interphase features shown in FIG. 5B. […]

Assay [5] has as its system SKOV3 cells. As to the kind of experiment: Mitotic spindle length in tubulin marker images of SKOV3 cells. The format is cell-based. An excerpt:
In accordance with this invention, the length of a bipolar mitotic spindle may be measured as the separation distance between the spindle poles. To make such measurement, mitotic spindles are observed by a suitable technique such as one that employs a marker for a specific component of the spindle. For example, the technique may involve treating cells with a marker for tubulin and then imaging them under conditions that illuminate such marker. This facilitates automated identification of the mitotic spindle and measurement of its length using image analysis algorithms. […]
The data in this table was obtained for SKOV3 cells (ovarian cancer cell line) treated with DMSO (control) and a compound that produces the rice phenotype. […] In the table, “n” is the number of cells that were analyzed to generate a mean length in micrometers as indicated and associated standard deviation. Spindle lengths were measured manually in this example.
Manual measurements were taken from one image each of DMSO, rice compound 4-(3-Bromo-4-hydroxy-5-methoxy-phenyl)-6-methyl-2-oxo-1,2,3,4-tetrahydro-pyrimidine-5-carboxylic acid 1,2,2-trimethyl-propyl ester at 40 uM, and a mitotic kinesin inhibitor at 40 uM using MetaMorph Imaging Software. Lines were drawn between what was manually determined to be the ends of the mitotic spindle. […]

Assay [6] has as its system 60 cell lines. The conditions noted are these: NCI panel data; cited from earlier work.
The mark [7] stands for this setting: wide range of concentrations, FIG. 7A.
[8] abbreviates: SK0V3 cell line, wide range of concentrations, FIG. 7A.

With `COc1cc(C2NC(=O)NC(C)=C2C(=O)OC(C)C(C)(C)C)cc(Br)c1O` (centres unmarked) [4-(3-Bromo-4-hydroxy-5-methoxy-phenyl)-6-methyl-2-oxo-1,2,3,4-tetrahydro-pyrimidine-5-carboxylic acid 1,2,2-trimethyl-propyl ester], the “Induction of the rice phenotype” value was “produces a rice phenotype” in assay [1] (tubulin staining, FIG. 7B) and “clearly manifest” in assay [3] (SKOV3 cells). Besides, the “Effect on cell number (number of objects)” value in assay [1] (setting [7]) is given as “significant affects”; in assay [2], “limited effect”; in assay [3] (setting [8]) it was “significant affects”. For the same molecule, the results for the “Effect on mitotic index” value in assay [1] (setting [7]), in assay [2] and in assay [3] (setting [8]) were “significant affects”, “limited effect” and “significant affects”, respectively. In assay [4], the “Impact on mitotic index” value is on record as “significant impact on mitotic index”. For the same molecule, the “Impact on interphase features (combined distance from normal interphase phenotype)” value (“Impact on interphase features” below) in assay [4] was “minimal impact on interphase features”.

For `CC(=O)O[C@H]1C(=O)[C@@]2(C)[C@H]([C@H](OC(=O)c3ccccc3)[C@]3(O)C[C@H](OC(=O)[C@H](O)[C@@H](NC(=O)c4ccccc4)c4ccccc4)C(C)=C1C3(C)C)[C@]1(OC(C)=O)CO[C@@H]1C[C@@H]2O` [Taxol, reference compound], in assay [2], the “Effect on cell number (number of objects)” value is listed as “robust response” and the “Effect on mitotic index” value is given as “robust response”. The “Production of elongated metaphase spindles” value in assay [5] is listed as “do not produce elongated metaphase spindles”. For the same molecule, in assay [6], the “Potency differences between cell types” value is recorded as “over 3 orders of magnitude”. Moreover, the “Impact on interphase features” value in assay [4] is recorded as “widely separated from the control interphase phenotype”. The “Interphase phenotypic features profile compared to control” value in assay [4] (FIG. 5B, SKOV3 cells, concentrations inducing approximately 15% mitotic arrest) is “vary to a greater degree”.

Consider `COc1cc(C2NC(=O)N(C)C(C)=C2C(=O)OC2CCCC2)cc(Br)c1O` (centres unmarked) [4-(3-Bromo-4-hydroxy-5-methoxy-phenyl)-1,6-dimethyl-2-oxo-1,2,3,4-tetrahydro-pyrimidine-5-carboxylic acid cyclopentyl ester], for which, in assay [5] (40 uM for 24 hours, control 0.4% DMSO, FIG. 2A), the “Mitotic spindle length compared to control cells” value is given as “significantly longer than spindles in normal cells”. Also, the “Organization of nuclear DNA in interphase cells compared to control” value in assay [3] (40 uM for 24 hours, GFP-Histone, FIG. 6A) is reported as “similarly organized in rice interphase cells as it is in normal interphase cells”. Also, in assay [4], the “Impact on mitotic index” value is given as “significant impact on mitotic index” and the “Impact on interphase features” value is recorded as “minimal impact on interphase features”.
